Our source for the melting point values is a melting point compilation (Tetko et al.; mined from patent text by program, amines drawn as free bases though some values may be those of a salt).

A value given as a limit tells only on which side of the number the result lay.

For the molecule `COc1ccccc1NC(=O)NCc1nnc(C)n1-c1sc(C)c(C)c1C(=O)c1ccc(Cl)cc1`, the melting point (in general, the temperature of the solid-liquid transition) lay in the range of 228 to 230 °C.

The molecule `CS(=O)(=O)Nc1cc2occ(N3CCCC3=O)c(=O)c2cc1Oc1ccccc1` displayed a melting point of 192 to 193 °C.

In turn, `FC(F)(F)c1cc(N2CCN(Cc3ccc4ccccc4n3)CC2)ccc1Cl` came in with a melting point of 61 to 64 °C.

For `COc1ccc(-c2cnc3[nH]cc(C(=O)C(C)(C)C)c3n2)cc1`, the melting point lay in the range of 207 to 208 °C.

Consider `C=CCN1C(=O)C2=C(c3ccccc3)N(CC=C)C(=O)C2=C1c1ccccc1`, for which the melting point was in the range of 216 to 217 °C.

The molecule `CSC(=O)c1c(C(F)F)nc(C(F)(F)F)c(C(=O)SC)c1NC1CC1` yielded a melting point of 85 to 86 °C.

For `CCn1cnc2c(Nc3cccc(C(=O)O)c3)nc(N[C@H]3CC[C@H](O)CC3)nc21`, the melting point was determined as 317 °C.

`CCN(CC)c1nc(-c2ccc(OC)c(OC)c2)nc2sc(C#N)c(C)c12` gave a melting point of 159 to 161 °C.

`CC(C)=CC1CC(C)=C(C)C2C(=O)OC(=O)C12` (configuration not stated) yielded a melting point of 78 to 82 °C.

`COc1ccc2nc(-c3cc(C(F)(F)F)nn3-c3ccc(S(N)(=O)=O)cc3)sc2c1` came in with a melting point of 236 to 237 °C.

`CC1(C)OCc2c1nc1ccccc1c2NCCCN1CCCC1` displayed a melting point of 70 to 75 °C.

`CC(C)c1nn(-c2ccc(C(F)(F)F)cn2)cc1CCCCOc1ccc(CC(=O)O)cc1` showed a melting point of 130 to 131 °C.

Molecule `CN(C)C(=O)Nc1ccc(-c2c[nH]c(=O)cn2)cc1` came in with a melting point of 256 to 260 °C.

Turning to `CCc1c(C(=O)c2cc(C)cc(C)c2)n(C/C=C\c2ccccc2)c(=O)[nH]c1=O`, the melting point was in the range of 98 to 99 °C.

Regarding `CC1=C(C)C(=O)C(CCCCC#CCCCC#CC(=O)O)=C(C)C1=O`, the melting point lay in the range of 49 to 51 °C.

`CC1(C)CC(=O)C2=C(C1)NC1=C(C(=O)CC(C)(C)C1)C2c1ccc(Br)c([N+](=O)[O-])c1` registered a melting point of more than 300 °C.

As for `CC(C)c1cccc(C(C)C)c1NS(=O)(=O)CC(=O)NCC(c1ccccc1)C1CCCC1` (configuration not stated), the melting point lay in the range of 168 to 170 °C.

Regarding `CCCCCCCCC=CCCCCCCCCCCCC(=O)Nc1ccc(Cl)cc1C(=O)O`, the melting point lay within 159 to 162 °C.

Molecule `C[C@H](N=C(C(N)=O)C(C)(C)C)c1ccccc1` had a melting point of 100 to 101 °C.

`c1ccc(-c2nnsc2-c2ccc3c(c2)OCO3)cc1` had a melting point of 107 to 109 °C.

`CCOC(=O)c1c(-c2ccccc2)n(C)n(-c2ccc(C#N)cc2)c1=O` showed a melting point of 218 to 220 °C.

Regarding `O=C(Nc1ccccc1)ONC1=Nc2ccc(Cl)cc2C(c2ccccc2)=NC1`, the melting point is 215 to 217 °C.

Molecule `Clc1nc2cc(Br)c(Br)cc2[nH]1` showed a melting point of 228 °C.

Molecule `CC(=O)NC1(c2ccccc2)C2=NCC(C)(C)CN2c2ccccc21` (configuration not stated) gave a melting point of more than 300 °C.

`COC(=O)c1nc(Cl)cc(Cl)c1N` returned a melting point of 127 to 128 °C.

As to `CCCCCCCOCCCCCCNCc1c(CO)ccc(O)c1CO`, the melting point is 72 to 74 °C.

In the case of `CN(C)C=C(SCCN1C(=O)c2ccccc2C1=O)C(=O)c1ccc(F)cc1`, the melting point fell in the range of 108 to 111 °C.

Molecule `O=C1CSC(c2ccc(-n3ccc(=O)cc3)cc2)=NN1` came in with a melting point of 289 to 291 °C.

With `COc1cccc(-n2c(=O)c3c(c4cccnc42)OC(COC(C)=O)C3)c1` (configuration not stated), the melting point fell in the range of 183 to 184 °C.

Regarding `Cn1c(=O)n(Cc2ccccc2)c(=O)c2cc(I)ccc21`, the melting point lay in the range of 149 to 150 °C.

In the case of `COc1ccc(C(O)CN2c3nc(-c4ccncc4)cc(=O)n3CCC2c2ccccc2)cc1` (configuration not stated), the melting point was 150 to 152 °C.

The molecule `CN(C(=O)CCc1ccccc1)c1ccc(C(=O)NN=C2C(=O)Nc3ccc(I)cc32)cc1` yielded a melting point of 239 °C.

As for `CCCCc1c(-c2cc(C)c(OC)c(C)c2)[nH]c2ccccc12`, the melting point lay within 76.8 to 77.7 °C.

`N#Cc1ccc(NC(=N)Nc2ccc(C#N)cc2)cc1` came in with a melting point of 195 to 200 °C.

Take `C=Cc1cc(NC(=O)N2CCN(c3cc(F)cc(F)c3)CC2)c(OC)nc1C`: the melting point is 160 to 161 °C.

With `O=C(O)CCc1conc1-c1ccc(Cl)c(F)c1`, the melting point lay within 148 to 149 °C.

Regarding `Nc1ccc(C(=O)c2ccccc2)cc1C=O`, the melting point worked out at 125 °C.

The molecule `O=Cc1coc(C(O)c2ccc(Br)cc2)c1` (configuration not stated) showed a melting point of 83 to 84 °C.

Turning to `CCCCN(CCCC)c1cc(OC)c(C=Cc2ccc(C=O)s2)c(OC)c1`, the melting point is 105 to 106 °C.

Turning to `CCc1ccc(-c2cc3c(O)cccc3o2)s1`, the melting point is 87 to 90 °C.

Take `CCCc1nc2c(N)nc3cc(OCc4ccc(OC)cc4)ccc3c2n1CC(C)C`: the melting point is 186 to 188 °C.

For the molecule `NC(=S)NNC(=O)CCCCc1ccccc1`, the melting point lay in the range of 140 to 141 °C.

As to `CCOC(=O)COc1ccc(O)c(Cl)c1`, the melting point is 80 to 82 °C.

`Cc1cc(F)ccc1-c1cnccn1` returned a melting point of 66 to 68 °C.

Take `CNC(=O)CC(SC(C)=O)C(CC(C)C)C(=O)NC(Cc1ccc(OC)cc1)C(=O)NC` (configuration not stated): the melting point fell in the range of 195 to 199 °C.

Molecule `CN(C)c1ccc(NC(=O)N(CC2CCCCC2)C[C@H]2CCCC[C@H]2CN(CC2CCCCC2)C(=O)Nc2ccc(N(C)C)cc2)cc1` registered a melting point of 102 to 106 °C.

As to `O=C(OCC(O)CO)c1cc(F)ccc1Nc1ccnc2cc(Cl)ccc12` (configuration not stated), the melting point stood at 168 °C.

Turning to `O=C1NC(=C(Br)c2ccccc2)C(=O)C1=NO`, the melting point stood at 158 °C.

Molecule `COc1cccc2c1C(=O)OC2(C)O` (configuration not stated) came in with a melting point of 156 to 158 °C.

With `CCCCCCN(C(=O)Nc1ccc(C(=O)O)cc1)c1ccc2c(c1)C(C)(C)CCC2(C)C`, the melting point was found to be 177 °C.

`O=C1N(c2ccc(Cl)cc2Cl)Cc2cnc(Nc3ccccc3)nc2N1c1ccc(CO)cc1` came in with a melting point of 121 to 125 °C.

Molecule `Cc1cc2c(cc1-c1cccc(C=O)c1)C(C)(C)CCC2(C)C` displayed a melting point of 104 to 105 °C.

In turn, `O=C(O)c1nc(-c2ccc(Cl)cc2Cl)n(-c2ccc(Cl)cc2)c1CO` returned a melting point of 138 °C.

`CCCCCCCCCCCCCCCCCCCCCC(=O)Oc1cc(C(C)(C)C)c(O)c(C(C)(C)C)c1` showed a melting point of 59 to 61 °C.

As to `COc1cccc(C=CC(=O)C(=O)O)c1OC`, the melting point was in the range of 136 to 138 °C.

The molecule `COC(=O)N[C@H](C(=O)N[C@@H](Cc1ccccc1)[C@@H](O)CN(Cc1ccc(-c2cncs2)cc1)NC(=O)[C@@H](NC(=O)OC)C(C)(C)C)C(C)C` had a melting point of 114 to 115 °C.

`COc1ccc(C2CCCN(C)C2)c2c1NC(=O)C2` (configuration not stated) displayed a melting point of 170 °C.

`O=C(CCc1cccnc1)C12CC3CC(CC(C3)C1)C2` showed a melting point of 43 to 44.5 °C.

`CC(C)C(NC(=O)OC(C)(C)C)C(=O)OCC1OC(n2cc(C=CBr)c(=O)[nH]c2=O)CC1Cl` (configuration not stated) displayed a melting point of 75 to 76 °C.

On to `Cc1ccccc1Oc1ccc2ccc(N)nc2n1`, for which the melting point stood at 192 °C.

`CCN(CC)CCSc1ccc(/C=C/C(=O)OC)cc1[N+](=O)[O-]` showed a melting point of 57.4 to 59.1 °C.

As for `CC1(C)CC(=O)C=C(c2ccc(OCC(=O)O)c(Cl)c2Cl)C1`, the melting point was 178 to 180 °C.

For `OCC#Cc1ccc(Br)cn1`, the melting point fell in the range of 121 to 122 °C.

`Cc1c(NC(=O)CC(C)(C)C)cc2c(c1C)OC(C)(C)C2c1ccc(C(C)C)cc1` (configuration not stated) registered a melting point of 172 to 173 °C.

In turn, `Cc1nc(NC(=O)c2ccccc2)sc1C(=O)NCc1ccccc1F` yielded a melting point of 180 to 183 °C.

`O=c1c2[nH]cnc2n(CC2CCCCC2)c(=O)n1CC1CC1` returned a melting point of 181 °C.

For the molecule `Cc1cccc(C)c1N1CC(C)N(c2c(C)cccc2C)C1=NCC(=O)O` (configuration not stated), the melting point was 307 to 310 °C.

Molecule `COc1cc(C=CC(=O)Nc2cnc3c(C)cc(C)cc3c2-c2ccccc2Cl)cc(OC)c1OC(C)=O` had a melting point of 152 to 154 °C.

`COc1ccc(Cl)cc1NC(=O)Nc1ccc(N2CCN(C(=O)OC(C)(C)C)CC2)cc1` came in with a melting point of 205 °C.

`COC(=O)Cc1ccc(OCC(C)NCC(O)c2cccc(Cl)c2)c(O)c1` (configuration not stated) showed a melting point of 68 °C.

Molecule `CC(C)(CNc1c(C(N)=O)cnn2cccc12)N1CCOCC1` displayed a melting point of 179 °C.

As to `CCCCCCCCOC(=O)/C=C/c1ccccc1C1C(C(=O)OCC)=C(C)NC(C)=C1C(=O)OCC`, the melting point lay within 110 to 112 °C.

In turn, `O=C(CC(c1ccccc1)(c1ccccc1)c1ccccc1)N1CC2=C(C1)c1cccc3cccc2c13` came in with a melting point of 159 to 168 °C.

The molecule `CCCCc1nn2c(c1Cc1ccc(-c3ccccc3C(=O)O)cc1)CCCC2` returned a melting point of 162 °C.

In turn, `Clc1ccc2c(c1)Cn1cccc1C(C1CCN(CCc3ccccc3)CC1)O2` (configuration not stated) displayed a melting point of 145 to 147 °C.

As to `COC1(OC)CC2CC[C@@]1(CS(=O)(=O)N(C(C)C)C(C)C)C2(C)C`, the melting point was in the range of 73.8 to 74.6 °C.

`CC[C@H]1CN(c2ccc3c(=O)c(C(=O)O)cn([C@@H]4C[C@@H]4F)c3c2C)C[C@H]1N`: the melting point was in the range of 232 to 234 °C.

With `COC(=O)CNS(=O)(=O)c1c(C(=O)OC)sc2ccccc12`, the melting point lay within 148 to 150 °C.

`COc1ccc(-c2ccn3c(=O)c(C(=O)O)ccc3c2)cc1`: the melting point was more than 250 °C.

In turn, `COC1=NS(=O)(=O)N(C)C(OCCc2ccccc2)=N1` displayed a melting point of 74 to 77 °C.

The molecule `CC(ON1C(C)(C)CC2(CC1(C)C)OCC(C)(C)CO2)c1ccc(C(=O)c2ccccc2)cc1` (configuration not stated) gave a melting point of 104 to 117 °C.

Take `CCc1ccc(C2COc3c(C)c(C)c(N)c(C)c32)cc1` (configuration not stated): the melting point was in the range of 88 to 89 °C.

In the case of `CCC(C)(C)NC(=S)Nc1cc(Br)cc(Br)c1`, the melting point was in the range of 147 to 149 °C.

As to `CNC(=O)NCCNCC(O)COc1ccc(OCCOCC(C)C)cc1` (configuration not stated), the melting point amounted to 121 °C.

Take `CS(=O)(=O)Nc1cccc(Nc2nc(NCCc3c[nH]cn3)c3nc[nH]c3n2)c1`: the melting point was 205 to 210 °C.

With `CSc1nccc(-c2cc(C)ccc2NC(=O)C(C)C)n1`, the melting point lay in the range of 134 to 135 °C.

Turning to `O=C(CCCN1CCNC1=O)N1CCC(C2c3ncc(Br)cc3CCc3cc(Cl)cc(Br)c32)CC1` (single isomer, unassigned; (+)), the melting point was in the range of 120 to 123 °C.
